Series [1] relates to peritoneal murine macrophages. The arrangement: method as in Meinel et al. ([2020]). The conditions noted are these: murine macrophage cells; ref Meinel et al. ([2020]); cited from earlier work.
Series [2] in a line: Cytotoxicity against mammalian cells (MTT). Particulars: BALB/c, mouse; peritoneal murine macrophages, 72 h, MTT. The format is cell-based, BALB/c mice. Here is the method:
After being prepared as previously mentioned, murine peritoneal macrophages obtained from BALB/c mice were either left untreated (negative control) or treated with the compounds (3.125–100.000 μM). Using a spectrophotometer (Multiskan EX, Thermo Electron Corporation, Vantaa, Finland) set to 570 nm, cell viability was assessed after 72 h of treatment using the MTT method (Mosmann [1983]). A cytotoxic concentration for 50% of the cell population (CC50) was used to express the results. The reference medication was miltefosine (Cayman Chemical Company, Ann Arbor, MI, USA). The assays were performed in three independent experiments in duplicate. The selectivity index was calculated by […].

Series [3] relates to L. amazonensis intracellular amastigotes. Briefly: Activity against intracellular amastigote forms of L. amazonensis in peritoneal macrophages (Giemsa counting). The format is cell-based, Leishmania amazonensis. Particulars: for SI (Selectivity Index): CC50 of peritoneal murine macrophages/IC50 L. amazonensis amastigotes; for IC50: Leishmania amazonensis, Peritoneal macrophage, intracellular amastigotes in murine peritoneal macrophages, 72 h. Here is the method: Peritoneal macrophages were obtained from BALB/c mice previously inoculated with 3% thioglycollate medium (da Trindade Granato et al. [2018]). The macrophages (2 × 10^6 cells/mL) were then allowed to adhere in 24‐well culture plates for 16 h at 37°C in a 5% CO2 atmosphere. After rinsing with phosphate‐buffered saline (PBS), the adhered macrophages were infected with stationary‐phase promastigotes of L. amazonensis at a 10:1 parasite‐to‐macrophage ratio for 4 h at 33°C. After several washes to remove non‐adherent promastigotes, the cells were either left untreated (negative control) or treated with the compounds (3.125–100.000 μM). Following a 72 h treatment period, the infected macrophages were fixed in ethanol, stained with Giemsa, and 200 macrophages were counted to determine the number of intracellular amastigotes. The GraFit software was used to determine the IC50, which was the outcome of three separate trials conducted in duplicate.

The subject of series [4] is L. amazonensis promastigotes. The series is described as follows: Activity against promastigotes of L. amazonensis (MTT). Particulars: Leishmania amazonensis, 72 h, read-out: Promastigote IC50. The format is cell-based. Here is the method:
Promastigotes of L. amazonensis (IFLA/BR/67/PH8) were cultivated in brain heart infusion ([…] José dos […], Brazil) supplemented with bovine hemin (Sigma-Aldrich, St. Louis, MO, USA), folic acid (Sigma-Aldrich, St. Louis, MO, USA), inactivated fetal bovine serum (Cultilab, São Paulo, Brazil), and penicillin/streptomycin solution (Sigma-Aldrich, St. Louis, MO, USA). The cells were kept at 25°C in a BOD incubator. […] Louis, MO, USA; Mosmann [1983]). The viability of parasites was measured using a spectrophotometer (Multiskan EX-Thermo Electron Corporation, Vantaa, Finland) at 570 nm. The values were expressed as an inhibitory concentration capable of inhibiting 50% (IC50) of cell growth by using GraFit 5 software (Erithacus Software Ltda). […] Paulo, SP, Brazil) were used as reference drugs. All assays were run in triplicate across three separate trials.

A short description of series [5]: Cytotoxicity in human red blood cells (hemolytic assay). The format is cell-based. The conditions noted are these: human erythrocytes (1% suspension), 200.00 μM (maximum concentration tested). As for the experimental part: Blood cells were centrifuged at 1500 rpm, the plasma and leukocytes were discarded, and the erythrocytes were washed in PBS. Then, the cells were diluted to a concentration of 1%, plated in 96‐well plates, and untreated or treated with the compound 7 at different concentrations (0.09–200.00 μM). The plate was incubated for 24 h at 37°C, and then centrifuged at 2000 rpm for 1 min. The supernatant was collected, and the absorbance (Abs) was determined in a spectrophotometer (Multiskan EX, Thermo Electron Corporation, Vantaa, Finland) at 540 nm. Untreated cells were considered the negative control. For the positive control, 0.2% saponin in deionized water was used.

`CCCCCCCCCCn1cc(COCC2CO2)[n+](C)n1.[I-]` (stereo not drawn) [1‐decyl‐3‐methyl‐4‐((oxiran‐2‐ylmethoxy)methyl)‐1H‐1,2,3‐triazol‐3‐ium iodide]: the “fold lower cytotoxicity compared to its 4-hydroxy-substituted precursor” value in series [1] is reported as “approximately 2.5 fold”.

On to `CCCCCCCCCCCCCCCCn1cc(COC(=O)c2ccccc2O)[n+](C)n1.[I-]` [Compound 11, 1‐Hexadecyl‐4‐(((2‐Hydroxybenzoyl)oxy)methyl)‐3‐Methyl‐1H‐1,2,3‐Triazol‐3‐Ium Iodide], for which half-maximal cytotoxicity in series [2] (CC50 at 72 h) was put at 4.01 ± 1.12 µM. For the same molecule, in series [3], the “SI (Selectivity Index)” value worked out at 0.32 and the IC50 (as a rule, the concentration that gives 50% inhibition) is 12.4 ± 1.86 µM. The IC50 in series [4] came out at 1.72 ± 0.02 µM.

Consider `CCCCCCCCCCCCCCn1cc(COC(=O)c2ccccc2O)nn1` [Compound 5, (1‐Tetradecyl‐1H‐1,2,3‐Triazol‐4‐Yl)methyl 2‐Hydroxybenzoate], for which, in series [2], the CC50 (as a rule, the concentration at which the toxic effect on the cells reaches its halfway point) at 72 h was > 150 µM. Also, the IC50 in series [3] and in series [4] was > 100 µM each time.

For the molecule `CCCCCCCCCCCCCCCCn1cc(COC(=O)c2ccccc2O)nn1` [Compound 6, (1‐Hexadecyl‐1H‐1,2,3‐Triazol‐4‐Yl)methyl 2‐Hydroxybenzoate], the CC50 at 72 h in series [2] is > 150 µM. The IC50 in series [3] and in series [4] was > 100 µM throughout.

With `CCCCCCCCCCCCn1cc(COC(=O)c2ccccc2O)[n+](C)n1` [Compound 9, 1‐Dodedecyl‐4‐(((2‐Hydroxybenzoyl)oxy)methyl)‐3‐Methyl‐1H‐1,2,3‐Triazol‐3‐Ium Iodide], it took 1.34 ± 0.32 µM to reach half-maximal cytotoxicity in series [2] (CC50 at 72 h). In series [3], the “SI (Selectivity Index)” value was 0.21 and the IC50 amounted to 6.31 ± 1.86 µM. The IC50 in series [4] stood at 1.58 ± 0.12 µM.

In turn, `CCCCCCCCCCn1cc(COC(=O)c2ccccc2O)nn1` [Compound 3, (1‐Decyl‐1H‐1,2,3‐Triazol‐4‐Yl)methyl 2‐Hydroxybenzoate] registered a CC50 at 72 h in series [2] of 70.2 ± 14.2 µM. Moreover, the IC50 in series [3] and in series [4] was > 100 µM in each case.

For the molecule `CCCCCCCCn1cc(COC(=O)c2ccccc2O)nn1` [Compound 2, (1‐Octyl‐1H‐1,2,3‐Triazol‐4‐Yl)methyl 2‐Hydroxybenzoate], in series [2], the CC50 at 72 h was > 150 µM. The concentration for half-maximal inhibition (IC50) in series [3] and in series [4] was > 100 µM throughout.

Turning to `CCCCCCCCCCCCCCn1cc(COC(=O)c2ccccc2O)[n+](C)n1.[I-]` [Compound 10, 1‐Tetradecyl‐4‐(((2‐Hydroxybenzoyl)oxy)methyl)‐3‐Methyl‐1H‐1,2,3‐Triazol‐3‐Ium Iodide], the CC50 at 72 h in series [2] was found to be 2.37 ± 0.82 µM. Also, in series [3], the “SI (Selectivity Index)” value turned out to be 0.40 and 5.92 ± 2.24 µM corresponded to half-maximal inhibition (IC50). In addition, the IC50 in series [4] is 1.55 ± 0.34 µM.

In turn, `CCCCCCCCCCCCCCCCOP(=O)([O-])OCC[N+](C)(C)C` [Miltefosine, reference compound] yielded a CC50 at 72 h in series [2] of 151.81 ± 0.03 µM. The IC50 in series [3] was 11.5 ± 1.79 µM; in series [4], 15.1 ± 2.08 µM. In series [5], this molecule had a hemolysis at 24 h, 200 µM of 95.9%.

Regarding `CCCCCCCCCCCCn1cc(COC(=O)c2ccccc2O)nn1` [Compound 4, (1‐Dodecyl‐1H‐1,2,3‐Triazol‐4‐Yl)methyl 2‐Hydroxybenzoate], the 50% cytotoxic concentration (CC50) at 72 h in series [2] was > 150 µM. In addition, the IC50 in series [3] and in series [4] was > 100 µM throughout.

Molecule `C[C@@H]1[C@H](O)[C@@H](C)/C=C/C=C/C=C/C=C/C=C/C=C/C=C/[C@H](O[C@@H]2O[C@H](C)[C@@H](O)[C@H](N)[C@@H]2O)C[C@@H]2O[C@](O)(C[C@@H](O)C[C@@H](O)[C@H](O)CC[C@@H](O)C[C@@H](O)CC(=O)O[C@H]1C)C[C@H](O)[C@H]2C(=O)O` [Am B, amphotericin B, reference compound] gave a CC50 at 72 h in series [2] of 0.71 ± 0.22 µM. The same molecule gave an IC50 in series [3] of 85.8 ± 30.4 µM. For the same molecule, the hemolysis at 24 h, 200 µM in series [5] stood at 95.9%.

As for `CCCCCCCCCCn1cc(COC(=O)c2ccccc2O)[n+](C)n1.[I-]` [Compound 8, 1‐Decyl‐4‐(((2‐Hydroxybenzoyl)oxy)methyl)‐3‐Methyl‐1H‐1,2,3‐Triazol‐3‐Ium Iodide], half-maximal cytotoxicity in series [2] (CC50 at 72 h) was put at 0.31 ± 0.22 µM. In series [3], the “SI (Selectivity Index)” value is 0.12 and the IC50 was 2.49 ± 0.5 µM. For the same molecule, the IC50 in series [4] turned out to be 1.08 ± 0.18 µM.

The values are drawn from publication PMC12723204, “Mitochondrial Dysfunction Induced by a Novel Salicylate‐Based 1,2,3‐Triazole Salt With Potent Antileishmanial Activity” (Chemical Biology & Drug Design, 2025).
